Test results reported in article PMC10033419, “Blocking NS3–NS4B interaction inhibits dengue virus in non-human primates” (Nature, 2023).

Test system: DENV-1/45AZ5
Test: NHP DENV-1 study, serum viral RNA RT-qPCR
Assay type: in vivo, rhesus macaques
Protocol: WRAIR is fully accredited by AAALAC International.
Serum samples from macaques were checked for the presence of DENV-1 RNA. Viral RNA for RT–qPCR was extracted from 100–200 µl of serum using the QIAcube instrumentation and the QIAGEN Viral RNA extraction kits. The primers and fluorogenic probes used in the RT–qPCR assays have been previously described[63],[64]. DENV-1 RNA was detected in a 25 µl reaction containing 5 µl of extracted RNA sample, 10 pmol of dengue-specific primers and 5 pmol dengue probe in the reaction mixture from Superscript Ill Platinum One-Step Quantitative RT-PCR Kit (Invitrogen, Thermo Fisher Scientific), consisting of 0.5 µl Superscript III RT/Platinum mix, 12.5 µl 2× reaction mix and 0.05 µl ROX reference dye. The one-step RT–qPCR comprises a 30 min RT step at 50 °C and 2 min of Taq polymerase activation at 94 °C, followed by 40 cycles of PCR at 94 °C for 5 s and 53 °C for 35 s performed in an ABI 7500DX Fast Real Time PCR system. Each assay included positive, negative and non-template controls. The RNA copy number was calculated from a standard curve of tenfold serial dilutions made from RNA in vitro transcripts consisting of DENV-1 with known copy numbers. The LLOQ was 100 genomic copies per reaction.
This sample size was sufficient to detect a significant difference in the number of infected animals in each of the groups as low as 83%. […] Sample processing and conducting of assays was performed by laboratory technicians not involved in the treatment/manipulation of the animals.

COc1cc(N[C@H](C(=O)c2c[nH]c3ccc(OC(F)(F)F)cc23)c2ccc(Cl)cc2OC)cc(S(C)(=O)=O)c1 [JNJ-1802]
Negative: qRT-PCR Assay Result (animal R10, Day 0) | qRT-PCR Assay Result (animal R10, Day 1) | qRT-PCR Assay Result (animal R10, Day 2) | qRT-PCR Assay Result (animal R10, Day 3) | qRT-PCR Assay Result (animal R10, Day 4) | qRT-PCR Assay Result (animal R10, Day 5) | qRT-PCR Assay Result (animal R10, Day 6) | qRT-PCR Assay Result (animal R10, Day 7) | qRT-PCR Assay Result (animal R10, Day 8) | qRT-PCR Assay Result (animal R10, Day 9) | qRT-PCR Assay Result (animal R10, Day 10) | qRT-PCR Assay Result (animal R10, Day 11) | qRT-PCR Assay Result (animal R10, Day 14) | qRT-PCR Assay Result (animal R10, Day 29) | qRT-PCR Assay Result (animal R11, Day 0) | qRT-PCR Assay Result (animal R11, Day 1) | qRT-PCR Assay Result (animal R11, Day 2) | qRT-PCR Assay Result (animal R11, Day 3) | qRT-PCR Assay Result (animal R11, Day 4) | qRT-PCR Assay Result (animal R11, Day 5) | qRT-PCR Assay Result (animal R11, Day 6) | qRT-PCR Assay Result (animal R11, Day 7) | qRT-PCR Assay Result (animal R11, Day 8) | qRT-PCR Assay Result (animal R11, Day 9) | qRT-PCR Assay Result (animal R11, Day 10) | qRT-PCR Assay Result (animal R11, Day 11) | qRT-PCR Assay Result (animal R11, Day 14) | qRT-PCR Assay Result (animal R11, Day 29) | qRT-PCR Assay Result (animal R12, Day 0) | qRT-PCR Assay Result (animal R12, Day 1) | qRT-PCR Assay Result (animal R12, Day 2) | qRT-PCR Assay Result (animal R12, Day 3) | qRT-PCR Assay Result (animal R12, Day 4) | qRT-PCR Assay Result (animal R12, Day 5) | qRT-PCR Assay Result (animal R12, Day 6) | qRT-PCR Assay Result (animal R12, Day 7) | qRT-PCR Assay Result (animal R12, Day 8) | qRT-PCR Assay Result (animal R12, Day 9) | qRT-PCR Assay Result (animal R12, Day 10) | qRT-PCR Assay Result (animal R12, Day 11) | qRT-PCR Assay Result (animal R12, Day 14) | qRT-PCR Assay Result (animal R12, Day 29)
0.00E+00 GE/mL: qRT-PCR Assay Average GE/mL (animal R9, Day 29, LOQ 100 GE/reaction) | qRT-PCR Assay Average GE/mL (animal R10, Day 0, Assay LOQ = 100 GE/reaction) | qRT-PCR Assay Average GE/mL (animal R10, Day 1, Assay LOQ = 100 GE/reaction) | qRT-PCR Assay Average GE/mL (animal R10, Day 2, Assay LOQ = 100 GE/reaction) | qRT-PCR Assay Average GE/mL (animal R10, Day 3, Assay LOQ = 100 GE/reaction) | qRT-PCR Assay Average GE/mL (animal R10, Day 4, Assay LOQ = 100 GE/reaction) | qRT-PCR Assay Average GE/mL (animal R10, Day 5, Assay LOQ = 100 GE/reaction) | qRT-PCR Assay Average GE/mL (animal R10, Day 6, Assay LOQ = 100 GE/reaction) | qRT-PCR Assay Average GE/mL (animal R10, Day 7, Assay LOQ = 100 GE/reaction) | qRT-PCR Assay Average GE/mL (animal R10, Day 8, Assay LOQ = 100 GE/reaction) | qRT-PCR Assay Average GE/mL (animal R10, Day 9, Assay LOQ = 100 GE/reaction) | qRT-PCR Assay Average GE/mL (animal R10, Day 10, Assay LOQ = 100 GE/reaction) | qRT-PCR Assay Average GE/mL (animal R10, Day 11, Assay LOQ = 100 GE/reaction) | qRT-PCR Assay Average GE/mL (animal R10, Day 14, Assay LOQ = 100 GE/reaction) | qRT-PCR Assay Average GE/mL (animal R10, Day 29, Assay LOQ = 100 GE/reaction) | qRT-PCR Assay Average GE/mL (animal R11, Day 0, Assay LOQ = 100 GE/reaction) | qRT-PCR Assay Average GE/mL (animal R11, Day 1, Assay LOQ = 100 GE/reaction) | qRT-PCR Assay Average GE/mL (animal R11, Day 2, Assay LOQ = 100 GE/reaction) | qRT-PCR Assay Average GE/mL (animal R11, Day 3, Assay LOQ = 100 GE/reaction) | qRT-PCR Assay Average GE/mL (animal R11, Day 4, Assay LOQ = 100 GE/reaction) | qRT-PCR Assay Average GE/mL (animal R11, Day 5, Assay LOQ = 100 GE/reaction) | qRT-PCR Assay Average GE/mL (animal R11, Day 6, Assay LOQ = 100 GE/reaction) | qRT-PCR Assay Average GE/mL (animal R11, Day 7, Assay LOQ = 100 GE/reaction) | qRT-PCR Assay Average GE/mL (animal R11, Day 8, Assay LOQ = 100 GE/reaction) | qRT-PCR Assay Average GE/mL (animal R11, Day 9, Assay LOQ = 100 GE/reaction) | qRT-PCR Assay Average GE/mL (animal R11, Day 10, Assay LOQ = 100 GE/reaction) | qRT-PCR Assay Average GE/mL (animal R11, Day 11, Assay LOQ = 100 GE/reaction) | qRT-PCR Assay Average GE/mL (animal R11, Day 14, Assay LOQ = 100 GE/reaction) | qRT-PCR Assay Average GE/mL (animal R11, Day 29, Assay LOQ = 100 GE/reaction) | qRT-PCR Assay Average GE/mL (animal R12, Day 0, Assay LOQ = 100 GE/reaction) | qRT-PCR Assay Average GE/mL (animal R12, Day 1, Assay LOQ = 100 GE/reaction) | qRT-PCR Assay Average GE/mL (animal R12, Day 2, Assay LOQ = 100 GE/reaction) | qRT-PCR Assay Average GE/mL (animal R12, Day 3, Assay LOQ = 100 GE/reaction) | qRT-PCR Assay Average GE/mL (animal R12, Day 4, Assay LOQ = 100 GE/reaction) | qRT-PCR Assay Average GE/mL (animal R12, Day 5, Assay LOQ = 100 GE/reaction) | qRT-PCR Assay Average GE/mL (animal R12, Day 6, Assay LOQ = 100 GE/reaction) | qRT-PCR Assay Average GE/mL (animal R12, Day 7, Assay LOQ = 100 GE/reaction) | qRT-PCR Assay Average GE/mL (animal R12, Day 8, Assay LOQ = 100 GE/reaction) | qRT-PCR Assay Average GE/mL (animal R12, Day 9, Assay LOQ = 100 GE/reaction) | qRT-PCR Assay Average GE/mL (animal R12, Day 10, Assay LOQ = 100 GE/reaction) | qRT-PCR Assay Average GE/mL (animal R12, Day 11, Assay LOQ = 100 GE/reaction) | qRT-PCR Assay Average GE/mL (animal R12, Day 14, Assay LOQ = 100 GE/reaction) | qRT-PCR Assay Average GE/mL (animal R12, Day 29, Assay LOQ = 100 GE/reaction)
